# PMC8566451, “Lead optimization of novel quinolone chalcone compounds by a structure–activity relationship (SAR) study to increase efficacy and metabolic stability” (Scientific Reports, 2021)
# What was measured:
# HeLa cells = assay: Cell cycle analysis by flow cytometry; assay type: cell-based, human; details: 3× GI50, 12 or 24 h, HeLa and UKRV-Mel-38 (Supplemental Fig. S11)
# Procedure: Figure 5 CTR-21 arrests cells at G2/M, eventually leading to cell death by apoptosis. (a) Effects of CTR-21 on the cell cycle progression of HeLa and E112 cells. […] (b) Cell morphology of CTR-21 arrested cells. HeLa cells were treated with 30 nM of CTR-21 for 12 h, fixed with methanol and immunostained with α-tubulin or γ-tubulin, and counterstained with DAPI. Bar = […]. (c) CTR-21 promotes PARP cleavage. […] GAPDH was used as a loading control.
# Cell cycle progression was determined using flow cytometry. UKRV-Mel-38 and HeLa cells were plated onto 10 cm plate at a density of 0.5 million and treated them with or without the compounds the following day for 12, 24 or 48 h. Cells were then harvested and centrifuged at 1000 rpm for 5 min, washed in PBS and then fixed with ice-cold ethanol (70%) for at least 24 h at − 20 °C. The cells were centrifuged, re-suspended in PBS solution, followed by centrifugation. The cell pellet was then stained with 100 μg/mL propidium iodide (PI) and 100 μg/mL RNase A in distilled water for at least 1 h. DNA content was measured using a Beckmann Coulter Cytomics FC500 (Beckman Coulter, Fullerton, CA), and the proportion of cell populations in G0/G1, S, and G2/M phases of cell cycle was calculated on the basis of DNA distribution histograms using CXP software (Beckman Coulter, Fullerton, CA).
# MDA-MB435 = assay: Sulforhodamine B (SRB) assay; assay type: cell-based; details: Homo sapiens, MDA-MB-435, MDA-MB435 cells, 48 h
# Procedure: (§1) The human MDA-MB-231, MCF7, MDA-MB-468, RPMI-8226 and HeLa cell lines were purchased from ATCC and maintained in Dulbecco's Modified Eagle Medium (DMEM)—high glucose supplemented with 10% fetal bovine serum (FBS) and antibiotics/antimycotics. Cell line authentication was carried out by Genetica DNA Laboratories (Burlington, NC) using a short tandem repeat (STR) profiling method (March 2015; July 2015; September 2016). Melanoma cells E-055 (MZ-Mel-3), E-097 (Mel-SOE), E-112 (UKRV-Mel-38), E-157 (UKRV-Mel-17) were obtained from the European Searchable Tumour Line Database (ESTDAB) cell bank (a kind gift of Dr. Graham Pawelec, Tubingen University, Germany). MDA-MB-435 was purchased from the Division of Cancer Treatment and Diagnosis Tumor Repository. All melanoma cells were cultured in Roswell Park Memorial Institute (RPMI) medium supplemented with 10% FBS and P/S/antimycotics. Primary human epidermal melanocytes from normal adult abdominal skin were purchased from ATCC (cat # PCS-200–013) and Cell Applications (cat#104-05a). The melanocytes were cultured in the media supplied by the companies.
# (§2) The SRB assay was used to assess drug-induced cytotoxicity and cell proliferation as previously described[2],[33],[34] with a few modifications. Briefly, cells were plated 10,000 to 25,000 cells/cm^2 in 96-well plates (100 µl medium) and allowed to adhere overnight. The cell counts were different for each cell line to ensure optimal cell growth for the duration of the assay. Eight different concentrations of compound solutions using 2–4 times serial dilutions (100 µl). Cells were then incubated for an additional 48 h and then fixed with 100 µl ice-cold 10% (w/v) trichloroacetic acid (TCA) (without removing the cell medium, final concentration, 3.3% of TCA) and stained with 0.4% SRB (w/v) in 1% acetic acid (v/v). The relative growth rate (%) was calculated for each of the compound concentrations according to the following formula: 100 * (T − T0)/(C − T0), in which T is the optical density (OD) after exposure to a certain concentration of the compound after 48 h, T0 is the OD at the start of drug exposure (time zero) and C is the control growth. The GI50 for each compound was obtained from a non-linear sigmoidal dose–response (variable slope) curve fitted by GraphPad Prism v.4.03 software.
# HeLa = assay: Sulforhodamine B (SRB) assay; assay type: cell-based; details: Homo sapiens; HeLa cervical cancer cells, 48 h, SRB
# Procedure: as §1, §2
# UKRV-Mel-17 = assay: Sulforhodamine B (SRB) assay; assay type: cell-based; details: UKRV-Mel-17 melanoma cells, 48 h
# Procedure: as §1, §2
# MDA-MB231 = assay: Sulforhodamine B (SRB) assay; assay type: cell-based; details: Homo sapiens, MDA-MB-231; MDA-MB231 breast cancer cells, 48 h, SRB
# Procedure: as §1, §2
# MZ-Mel-3 = assay: Sulforhodamine B (SRB) assay; assay type: cell-based; details: MZ-Mel-3 melanoma cells, 48 h
# Procedure: as §1, §2
# UKRV-Mel-38 = assay: Sulforhodamine B (SRB) assay; assay type: cell-based; details: UKRV-Mel-38 melanoma cells, 48 h
# Procedure: as §1, §2
# MDA-MB468 = assay: Sulforhodamine B (SRB) assay; assay type: cell-based; details: Homo sapiens, MDA-MB-468, MDA-MB468 breast cancer cells, 48 h
# Procedure: as §1, §2
# MCF7 = assay: Sulforhodamine B (SRB) assay; assay type: cell-based; details: Homo sapiens; MCF7 breast cancer cells, 48 h, SRB
# Procedure: as §1, §2
# Mel-SOE = assay: Sulforhodamine B (SRB) assay; assay type: cell-based; details: Mel-SOE melanoma cells, 48 h
# Procedure: as §1, §2
# MDA-MB231-TaxR = assay: Sulforhodamine B (SRB) assay; assay type: cell-based; details: Homo sapiens, MDA-MB231-TaxR paclitaxel-resistant breast cancer cells, 48 h
# Source text: We had initially determined that quinolone chalcones were promising anti-proliferative through a first round screening and identified CTR-17 and CTR-20 as favorable structures for anticancer activity. […] We carried out a comparative SAR study to determine if we could further optimize the quinolone chalcone to maximize efficacy. The Sulforhodamine B (SRB) assay was used to measure the anti-proliferative/cell killing activities of CTRs, for which several different cell lines were use: the cervical cancer HeLa, the breast cancer cell lines MDA-MB231, MDA-MB468, MDA-MB231TaxR (an induced paclitaxel-resistant sub-cell line of the MDA-MB231[9]) and MCF7. In addition, a subset was tested against the melanoma cell lines MZ-MEL-3.1, Mel-SOE, UKRV-Mel-38, UKRV-Mel-17 and MDA-MB-435 (Table 1, Supplemental Table S1).
# as §2
# [1] = system: cancer cell lines (breast cancer, melanoma, cervical cancer); assay: SRB assay, average GI50 over cancer cell lines; assay type: cell-based
# Procedure: as §2
# porcine tubulin = molecular target: T1, porcine tubulin (Sus scrofa, UniProt P02550+P02554); assay: In vitro tubulin polymerization assay; assay type: biochemical; details: 3 µM compound, 20 µM porcine tubulin, 37 °C, 60 min
# T1 construct: purchased Cytoskeleton Inc., Denver, CO BK011P
# T1 sequence (P02554 whole entry): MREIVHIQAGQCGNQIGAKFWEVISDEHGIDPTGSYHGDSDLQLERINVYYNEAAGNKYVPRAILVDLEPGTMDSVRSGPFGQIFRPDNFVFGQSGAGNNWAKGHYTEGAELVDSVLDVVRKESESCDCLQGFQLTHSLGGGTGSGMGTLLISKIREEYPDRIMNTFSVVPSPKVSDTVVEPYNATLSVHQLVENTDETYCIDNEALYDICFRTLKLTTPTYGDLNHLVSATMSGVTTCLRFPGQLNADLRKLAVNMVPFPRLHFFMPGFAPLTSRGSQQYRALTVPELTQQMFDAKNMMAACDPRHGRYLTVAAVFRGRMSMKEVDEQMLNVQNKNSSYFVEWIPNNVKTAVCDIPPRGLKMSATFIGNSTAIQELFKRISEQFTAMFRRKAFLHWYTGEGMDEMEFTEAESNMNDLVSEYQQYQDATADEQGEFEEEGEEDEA
# T1 sequence (P02550 whole entry): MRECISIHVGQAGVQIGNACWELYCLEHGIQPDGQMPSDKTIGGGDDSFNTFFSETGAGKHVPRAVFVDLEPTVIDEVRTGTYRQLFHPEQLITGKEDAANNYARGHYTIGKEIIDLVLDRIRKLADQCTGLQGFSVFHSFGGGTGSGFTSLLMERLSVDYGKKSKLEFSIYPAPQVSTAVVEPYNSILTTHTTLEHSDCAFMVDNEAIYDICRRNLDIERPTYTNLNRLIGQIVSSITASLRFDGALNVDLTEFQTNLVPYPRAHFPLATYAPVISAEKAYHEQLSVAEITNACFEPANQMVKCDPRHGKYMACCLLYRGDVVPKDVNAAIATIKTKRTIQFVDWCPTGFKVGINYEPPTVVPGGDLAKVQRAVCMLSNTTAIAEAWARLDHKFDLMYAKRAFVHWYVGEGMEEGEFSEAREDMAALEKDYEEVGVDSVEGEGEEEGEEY
# Procedure: Spontaneous polymerization of 20 µM porcine tubulin was initiated with the addition of 1 mmol/L GTP at 37 °C and monitored every minute for 60 min in the presence of the indicated concentration of CTR-21, CTR-32, nocodazole, paclitaxel, or a DMSO vehicle control. To make the graph simpler, only 3 µM concentration is shown. […] A modified Dixon plot was used to determine the inhibitory concentration of CTR-21 and CTR-32 (Ki).
# Microtubule assembly was assessed using a Tubulin Polymerization assay kit (BK011P; Cytoskeleton Inc., Denver, CO). […] Polymerization was started by incubating at 37 °C and followed by absorbance readings every 1 min at 340 nm for 1 h using a Synergy H4 plate reader.
Structure (SMILES),cell cycle effect (HeLa cells),GI50 (MDA-MB435),GI50 (HeLa),GI50 (UKRV-Mel-17),GI50 (MDA-MB231),GI50 (MZ-Mel-3),GI50 (UKRV-Mel-38),GI50 (MDA-MB468),GI50 (MCF7),GI50 (Mel-SOE),GI50 (MDA-MB231-TaxR),potency compared to CTR-17 [1],"GI50 ([1]; average over the cell lines of Table 1 or Supplemental Table S1, read-out: average GI50)",effect on tubulin polymerization (porcine tubulin)
"COc1ccc2cc(/C=C/C(=O)c3ccccc3OC)c(=O)[nH]c2c1 [CTR-19, (E)-7-Methoxy-3-(3-(2-methoxyphenyl)-3-oxoprop-1-enyl) quinolin-2(1H)-one]","arrests cells in G2/M, albeit at a much higher concentration",4.72 ± 2.76 µM,6.82 ± 1.39 µM,11.2 µM,6.51 ± 1.39 µM,6.83 ± 0.957 µM,3.77 ± 0.206 µM,3.54 ± 0.06 µM,11.9 µM,10.1 µM,7.09 ± 1.06 µM,lower toxicity potency,7.3 µM,–
"COC(=O)Nc1nc2ccc(C(=O)c3cccs3)cc2[nH]1 [Noco, Nocodazole, reference compound]",–,0.018 ± 0.002 µM,0.025 ± 0.001 µM,0.039 ± 0.001 µM,0.035 ± 0.004 µM,0.023 ± 0.002 µM,0.034 ± 0.003 µM,0.048 ± 0.007 µM,0.033 ± 0.007 µM,0.051 ± 0.011 µM,0.047 ± 0.011 µM,–,–,reduced steady-state
